The text below walks through data of ChEMBL document CHEMBL5608208, “Design, synthesis of griseofamine A derivatives and development of potent antibacterial agents against MRSA” (Eur J Med Chem, 2024).

For series [1], the system named is Staphylococcus aureus. As to the kind of experiment: Antibacterial activity against methicillin resistant Staphylococcus aureus ATCC 43300 infected in ICR mouse systemic infection model assessed as reduction in bacterial burden in liver at 2.5 mg/kg, ip pretreated with bacteria for 30 mins followed by compound addition and measured for 7 days. It is filed as functional, organism-based. As to conditions: time 7.0 day.

The nature of series [2]: Tmax in ICR mouse at 5 mg/kg, po. It is filed as ADME, organism-based. As to conditions: in vivo.
Series [3] is described as follows: Volume of distribution in ICR mouse at 1 mg/kg, iv. As to conditions: in vivo. It is filed as ADME, organism-based.
Series [4] in a line: AUC(0 to infinity) in ICR mouse at 1 mg/kg, iv. It is filed as ADME, organism-based. As to conditions: in vivo.
Series [5] has as its system Staphylococcus aureus. As to the kind of experiment: Antibacterial activity against methicillin resistant Staphylococcus aureus ATCC 43300 infected in ICR mouse systemic infection model at 5 mg/kg, ip pretreated with bacteria for 30 mins followed by compound addition and measured for 7 days. It is filed as functional. As to conditions: time 7 day.
Series [6] relates to Staphylococcus aureus. As to the kind of experiment: Bactericidal activity against Staphylococcus aureus ATCC 29213 incubated for 18 to 24 hrs. It is filed as functional. As to conditions: time 18-24 hrs.
Series [7] can be described thus: Acute toxicity in ICR mouse assessed as change in body weight at 2 g/kg, po measured after 7 days. It is filed as organism-based. As to conditions: in vivo, 2000 mg/kg, 168 h, time 7 day.
Series [8] deals with Staphylococcus aureus. As to the kind of experiment: Antibacterial activity against methicillin resistant Staphylococcus aureus ATCC 33592 assessed as increase in cell aggregation at MIC incubated for 1 to 6 hrs by SEM analysis. It is filed as functional, organism-based. As to conditions: time 1-6 hrs.
Series [9] can be described thus: Half-life in ICR mouse at 5 mg/kg, po. It is filed as ADME, organism-based. As to conditions: in vivo.
For series [10], the system named is Staphylococcus epidermidis. As to the kind of experiment: Bactericidal activity against Staphylococcus epidermidis ATCC 12228 incubated for 18 to 24 hrs. As to conditions: time 18-24 hrs. It is filed as functional.
Series [11] is described as follows: Hemolytic activity in rabbit RBC assessed as hemolysis rate at 23.5 ug/ml incubated for 1 hr by microplate reader assay. It is filed as toxicity, cell-based, Oryctolagus cuniculus, Erythrocyte. As to conditions: rabbit red blood cells (erythrocytes), at 23.5 µg/mL, read-out: Activity.
Series [12] relates to Staphylococcus epidermidis. As to the kind of experiment: Drug resistance development in Staphylococcus epidermidis ATCC 12228 assessed as increase in MIC value measured after 7 passages by broth microdilution method. It is filed as functional, organism-based. (Broth dilution looks for growth in wells or tubes with falling amounts of substance.)
The nature of series [13]: MRT(0 to t) in ICR mouse at 1 mg/kg, iv. It is filed as ADME, organism-based. As to conditions: in vivo.
A short description of series [14]: Bioavailability in ICR mouse at 5 mg/kg, po. It is filed as ADME, organism-based. As to conditions: in vivo.
Series [15] is described as follows: Acute toxicity in ICR mouse assessed as aberrant behavior at 2 g/kg, po measured after 7 days. It is filed as organism-based. As to conditions: in vivo, 2000 mg/kg, 168 h, time 7 day.
Series [16] is described as follows: MRT(0 to infinity) in ICR mouse at 5 mg/kg, po. It is filed as ADME, organism-based. As to conditions: in vivo.
Series [17] has as its system Staphylococcus aureus. As to the kind of experiment: Bactericidal activity against methicillin resistant Staphylococcus aureus ATCC 33592 at 2.5 times MIC measured after 2 to 24 hrs by time-kill kinetics assay. It is filed as functional. As to conditions: time 2-24 hrs.
For series [18], the system named is Staphylococcus aureus. As to the kind of experiment: Antibacterial activity against methicillin resistant Staphylococcus aureus ATCC 33592 assessed as leakage of cellular components at MIC incubated for 1 to 6 hrs by SEM analysis. It is filed as functional, organism-based. As to conditions: time 1-6 hrs.
Series [19] relates to Staphylococcus aureus. As to the kind of experiment: Drug resistance development in methicillin resistant Staphylococcus aureus […] assessed as increase in MIC value measured after 8 passages by broth microdilution method. It is filed as functional.

In brackets after ≈: the same amount, converted by molar mass. Activity calls are given as the source filed them.

In general, Tmax refers to the time at which the peak concentration occurs. By Vd is commonly meant a proportionality between amount in the body and measured concentration, not a real space. A high value points to extensive tissue distribution. As a reminder, the AUC(0-inf) is the area under the concentration-time curve extrapolated to infinity. Lower therefore signals low exposure. As usually defined, the MBC is the lowest tested concentration that kills the bacteria rather than only halting them. Low readings indicate more potent killing, high ones less potent killing. Usually half-life stands for the time needed for the level to fall by half in the phase considered. What is called MRT last is the average time that molecules of a dose stay in the body. Broadly, the bioavailability is the share of a dose that reaches the circulation, judged against a reference dose that is usually intravenous. A lower bioavailability goes with little systemic uptake. One may read the MRT inf as the average time that molecules of a dose stay in the body. In general, MIC refers to the lowest concentration that inhibits growth of the organism. `C/C(O)=C1\C(=O)[C@@H]2Cc3c([nH]c4ccccc34)[C@@H](c3ccc(-c4cc(F)cc(F)c4)cc3)N2C1=O`: the result in the series with Staphylococcus aureus [1], in the series on Staphylococcus aureus [8] and with Staphylococcus aureus [18] was Active. Also, the Tmax in [2] came out at 3.33 h. In series [3], this compound came in with a Vd of 2.55 L/kg. This compound also displayed an AUC(0-inf) in series [4] of 4290 ng·h/mL. Also, the Activity was 87.5% with Staphylococcus aureus [5], “Non-Toxic” in [7], “Non-Toxic” in [15] and 100% in the series with Staphylococcus aureus [17]. Moreover, the MBC against Staphylococcus aureus [6] worked out at 1 µg/mL (≈ 2.13 µM); in series [10], 0.25 µg/mL (≈ 0.531 µM). In addition, the half-life in series [9] is 7.91 h. Further, the hemolysis at 1 h, 23.5 ug/ml in series [11] was less than 5%. The result in series [12] was inactive. Further, the MRT last in series [13] turned out to be 10.4 h. In addition, the bioavailability in [14] came to 11.6%. This compound also displayed an MRT inf in series [16] of 12.7 h. Besides, in the series on Staphylococcus aureus [19], the MIC stood at 2 µg/mL.
